Structures can show the parent of a compound that is named as a salt. Where two headings read alike, the source gives them in different places.
What was measured:
[1] = tested on: phenylquinone induced writhings; test: Phenylquinone writhing (50 per cent reduction in number of phenylquinone induced writhings), mouse; type: in vivo; details: for ED50 / ED50 Agonist Activity, Phenylquinone Writhing, Mouse, SC: weights in terms of the free base
Procedure: (§1) In vivo testing was conducted on the compounds designated herein as XVc (racemic mixture), d-XVc (dextrorotatory isomer), l-XVc (levorotatory isomer) and dl-XVd (see examples for structures) to determine their agonist and/or antagonist properties. The figures reported are the number of milligrams/kilogram of body weight of compound that produced an agonist or antagonist effect in 50% of the mice and rats so tested (ED50).
(§2) All the compounds were tested as the tartrates, but the weights reported in mg./kg. are corrected and reported in terms of the free base.
(§3) ^1 A 50 per cent reduction in number of phenylquinone induced writhings (Siegmund, E. A. et al., Proc. Soc. Biol. & Med. 95, 729; 1957).

[2] = tested on: phenylquinone induced writhings; test: Phenylquinone writhing (50 per cent reduction in number of phenylquinone induced writhings), rat; type: in vivo; details: weights in terms of the free base; for ED50: Rattus norvegicus
Procedure: as §1, §2, §3

[3] = tested on: Straub Tail induced by oxymorphone; test: Antagonism of Straub Tail induced by oxymorphone in 50 per cent of mice; type: in vivo; details: oxymorphone 2 mg./kg. sc., weights in terms of the free base; for ED50: Mus musculus
Procedure: as §1, §2
^2 Antagonism of Straub Tail induced by oxymorphone (2 mg./kg. sc.) in 50 per cent of mice.

[4] = tested on: righting reflex loss induced by oxymorphone; test: animal or person; type: in vivo; details: Rattus norvegicus, rats, oxymorphone 1.5 mg./kg. sc., weights in terms of the free base
Procedure: as §1, §2
^3 Antagonism of righting reflex loss induced by oxymorphone (1.5 mg./kg. sc.) in 50 per cent of rats.

[5] = tested on: analgesic effect induced by morphine; test: animal or person; type: in vivo; details: morphine 15 mg./kg. sc., weights in terms of the free base; for ED50: Rattus norvegicus
Procedure: as §1, §2

[6] = In vivo testing for agonist and/or antagonist properties (overall conclusion from Table I); set-up: species or system mice and rats; details: parenteral and oral administration
Procedure: as §1

[7] = Mus musculus, sc, read-out: ED50 Agonist Activity, Phenylquinone Writhing, Mouse, SC
[8] = po, read-out: ED50 Agonist Activity, Phenylquinone Writhing, Rat, PO
[9] = sc, read-out: ED50 Agonist Activity, Phenylquinone Writhing, Rat, SC
[10] = sc, read-out: ED50 Antagonist Activity, Oxymorphone Straub Tail, SC
[11] = SC, read-out: ED50 Antagonist Activity, Oxymorphone Narcosis, SC
[12] = po, read-out: ED50 Antagonist Activity, Morphine Antagonism Rat Tail Flick, PO
[13] = sc, read-out: ED50 Antagonist Activity, Morphine Antagonism Rat Tail Flick, SC

## C[C@@]12OCCC[C@@]13CCN(CC1CC1)[C@@H]2Cc1ccc(O)cc13 (racemic) [XVc tartrate, N-Cyclopropylmethyl-3-hydroxy-14β-methyl-8-oxamorphinan]
[1]; [7]
  ED50: 0.19 mg/kg
[2]; [8]
  ED50: 4 mg/kg
[2]; [9]
  ED50: 0.03 mg/kg
[3]; [10]
  ED50: 0.61 mg/kg
[4]; [11]
  ED50: 0.36 mg/kg
[5]; [12]
  ED50: 7.3 mg/kg
[5]; [13]
  ED50: 0.05 mg/kg

## C=CCN1CC[C@]23CCCC[C@H]2[C@H]1Cc1ccc(O)cc13 [Levallorphan, reference compound]
[1]; SC, remark under the ED50
  dose response, Phenylquinone Writhing, Mouse, SC: poor dose
[1]; SC, read-out: ED50 Agonist Activity, Phenylquinone Writhing, Mouse, SC
  ED50: 26.3 mg/kg

## C[C@@]12OCCC[C@@]13CCN(CC1CC1)[C@@H]2Cc1ccc(O)cc13 [d-XVc tartrate, N-Cyclopropylmethyl-3-hydroxy-14β-methyl-8-oxamorphinan]
[1]; SC
  ED50 Agonist Activity, Phenylquinone Writhing, Mouse, SC: > 40 mg/kg
[3]
  ED50 Antagonist Activity, Oxymorphone Straub Tail, SC: > 10 mg/kg
[5]
  ED50 Antagonist Activity, Morphine Antagonism Rat Tail Flick, SC: > 20 mg/kg

## Cl.Oc1ccc2c(c1)[C@@]13CCCO[C@H]1[C@H](C2)N(CC1CC1)CC3 [l-XVk hydrochloride, l-N-cyclopropylmethyl-3-hydroxy-8-oxamorphinan hydrochloride]
[1]; [7]
  ED50: 0.013 mg/kg
[2]; [9]
  ED50: 0.009 mg/kg
[3]; [10]
  ED50: 0.2 mg/kg
[4]; [11]
  ED50: 0.03 mg/kg
[5]; [13]
  ED50: 0.97 mg/kg

## CC(C)=CCN1CCC2(C)c3cc(O)ccc3CC1C2C (stereo not shown) [Pentazocine, reference compound]
[4]; [11]
  ED50: 10 mg/kg
[5]; [13]
  ED50: 12.2 mg/kg

## C=CCN1CC[C@]23c4c5ccc(O)c4O[C@H]2[C@@H](O)C=C[C@H]3[C@H]1C5 [Nalorphine, reference compound]
[3]; [10]
  ED50: 1.14 mg/kg

## C[C@@]12OCCC[C@@]13CCN(CC1CC1)[C@@H]2Cc1ccc(O)cc13 [l-XVc tartrate, N-Cyclopropylmethyl-3-hydroxy-14β-methyl-8-oxamorphinan]
[1]; Mus musculus, po, read-out: ED50 Agonist Activity, Phenylquinone Writhing, Mouse, PO
  ED50: 2.7 mg/kg
[1]; SC
  ED50 Agonist Activity, Phenylquinone Writhing, Mouse, SC: 0.11 mg/kg
[2]; [8]
  ED50: 1.3 mg/kg
[2]; SC
  ED50 Agonist Activity, Phenylquinone Writhing, Rat, SC: 0.02 mg/kg
[3]; po, read-out: ED50 Antagonist Activity, Oxymorphone Straub Tail, PO
  ED50: 14.6 mg/kg
[3]
  ED50 Antagonist Activity, Oxymorphone Straub Tail, SC: ≈ 0.2 mg./kg.
[4]; PO, read-out: ED50 Antagonist Activity, Oxymorphone Narcosis, PO
  ED50: 1.25 mg/kg
[4]; [11]
  ED50: 0.014 mg/kg
[5]; [12]
  ED50: 6.3 mg/kg
[5]
  ED50 Antagonist Activity, Morphine Antagonism Rat Tail Flick, SC: 0.021 mg/kg
[6]
  agonist and antagonist activity: potent agonist and antagonist activity

Reference: patent US3959290A, “3,14-Substituted-8-oxamorphinans” (Bristol-Myers Company, priority 1974, dated 1976)
